# Measured values taken from ChEMBL document CHEMBL6109083, “Design, synthesis, and antitumor activity of NSDs inhibitors targeting lung squamous cell carcinoma” (Eur J Med Chem, 2025).
# The source made the active and inactive calls. The rule behind the calls is not given here.
# What was measured:
# [1] = Tmax in male ICR mouse at 1 mg/kg, iv measured up to 24 hrs by LC-MS/MS analysis; format: ADME, organism-based; conditions: in vivo
# PC-9 = assay: Antiproliferative activity against human PC-9 cells assessed as reduction in cell viability at 0.4 uM by CCK8 assay; format: functional, cell-based; conditions: time 3-6 day
# [2] = AUC(0 to t) in male ICR mouse at 10 mg/kg, po measured up to 24 hrs by LC-MS/MS analysis; format: ADME, organism-based; conditions: in vivo
# NCI-H520 = assay: Antitumor activity against human NCI-H520 cells xenografted in BALB/c mouse assessed as tumor growth inhibition at 50 to 100 mg/kg, po administered daily via gavage and measured every 3 days for 14 days; format: functional, organism-based; conditions: dose 50-100 mg/kg, time 14.0 day
# [3] = Observed AUC (0 to infinity) in male ICR mouse at 1 mg/kg, iv measured up to 24 hrs by LC-MS/MS analysis; format: ADME, organism-based; conditions: in vivo
# [4] = Half life in male ICR mouse at 1 mg/kg, iv measured up to 24 hrs by LC-MS/MS analysis; format: ADME, organism-based; conditions: in vivo
structure (smiles),measurement,setting,value
O=C1C(Cl)=C(NCCc2cccc(F)c2)C(=O)c2ncccc21,Tmax,[1],6 min
same,Activity,PC-9,Time-dependent-effect
same,AUC(0-t) at 24 h,[2],145 ng·h/mL
same,Activity,NCI-H520,Active
same,AUC(0-inf),[3],10.1 ng·h/mL
same,half-life,[4],12 min
